From patent US9873709B2 (priority 2013, dated 2018)
pIC50: −log10 of the molar value.

The compounds below were run on JAK1-dependent STAT6 phosphorylation downstream of IL-13 stimulation in TF-1 human erythroleukemia cells (assay: cells). Details: TF-1, read-out: IL-13-pSTAT6 IC50.

Row | pIC50 | Compound
1 | 7.52 | CC1CN(C(=O)c2ccc(Nc3nc4c(C5=CCN(C(=O)CCC(F)(F)F)CC5)cccn4n3)cc2)CCN1 (centres unmarked) [Example 2-196, 4,4,4-trifluoro-1-[4-[2-[4-(3-methylpiperazine-1-carbonyl)anilino]-[1,2,4]triazolo[1,5-a]pyridin-8-yl]-3,6-dihydro-2H-pyridin-1-yl]butan-1-one]
2 | 7.97 | CN1CCC(C2CCCCN2C(=O)c2ccc(Nc3nc4c(C5=CCN(C(=O)CCC(F)(F)F)CC5)cccn4n3)cc2)CC1 (centres unmarked) [Example 2-149, 4,4,4-trifluoro-1-[4-[2-[4-[2-(1-methyl-4-piperidyl)piperidine-1-carbonyl]anilino]-[1,2,4]triazolo[1,5-a]pyridin-8-yl]-3,6-dihydro-2H-pyridin-1-yl]butane-1-one]
3 | 6.85 | O=C(NCC1CC12CCNCC2)c1ccc(Nc2nc3c(C4=CCN(C(=O)CCC(F)(F)F)CC4)cccn3n2)cc1 (centres unmarked) [Example 2-388, N-(6-azaspiro[2.5]octan-2-ylmethyl)-4-[[8-[1-(4,4,4-trifluorobutanoyl)-3,6-dihydro-2H-pyridin-4-yl]-[1,2,4]triazolo[1,5-a]pyridin-2-yl]amino]benzamide]
4 | 7.49 | CN1CCC(N(C)C(=O)c2ccc(Nc3nc4c(C5=CCN(C(=O)OCC6CC6)CC5)cccn4n3)cc2)CC1 [Example 2-353, cyclopropylmethyl 4-[2-[4-[methyl-(1-methyl-4-piperidyl)carbamoyl]anilino]-[1,2,4]triazolo[1,5-a]pyridin-8-yl]-3,6-dihydro-2H-pyridine-1-carboxylate]
5 | 6.74 | O=C(CCC(F)(F)F)N1CC=C(c2cccn3nc(Nc4ccc(C(=O)N5CC6CNCC6C5)cc4)nc23)CC1 (centres unmarked) [Example 2-313, 1-[4-[2-[4-(2,3,3a,4,6,6a-hexahydro-1H-pyrrolo[3,4-c]pyrrole-5-carbonyl)anilino]-[1,2,4]triazolo[1,5-a]pyridin-8-yl]-3,6-dihydro-2H-pyridin-1-yl]-4,4,4-trifluoro-butan-1-one]
6 | 8.19 | O=C(CCC(F)(F)F)N1CC=C(c2cccn3nc(Nc4ccc(C(=O)N5CCCC5c5cccnc5)cc4)nc23)CC1 (centres unmarked) [Example 2-145, 4,4,4-trifluoro-1-[4-[2-[4-[2-(3-pyridyl)pyrrolidine-1-carbonyl]anilino]-[1,2,4]triazolo[1,5-a]pyridin-8-yl]-3,6-dihydro-2H-pyridin-1-yl]butan-1-one]
7 | 8.22 | CN1CC2CC(C1)N(C(=O)c1ccc(Nc3nc4c(C5=CCN(C(=O)CCC(F)(F)F)CC5)cccn4n3)cc1)C2 (centres unmarked) [Example 2-201, 4,4,4-trifluoro-1-[4-[2-[4-(3-methyl-3,6-diazabicyclo[3.2.1]octane-6-carbonyl)anilino]-[1,2,4]triazolo[1,5-a]pyridin-8-yl]-3,6-dihydro-2H-pyridin-1-yl]butan-1-one]
8 | 8.03 | CN(CCc1ccccn1)C(=O)c1ccc(Nc2nc3c(C4=CCN(C(=O)CCC(F)(F)F)CC4)cccn3n2)cc1 [Example 2-152, N-methyl-N-[2-(2-pyridyl)ethyl]-4-[[8-[1-(4,4,4-trifluorobutanoyl)-3,6-dihydro-2H-pyridin-4-yl]-[1,2,4]triazolo[1,5-a]pyridin-2-yl]amino]benzamide]
9 | 8.19 | O=C(CCC(F)(F)F)N1CC=C(c2cccn3nc(Nc4ccc(C(=O)N5CCC(Cc6ccccn6)C5)cc4)nc23)CC1 (centres unmarked) [Example 2-471, 4,4,4-trifluoro-1-[4-[2-[4-[3-(2-pyridylmethyl)pyrrolidine-1-carbonyl]anilino]-[1,2,4]triazolo[1,5-a]pyridin-8-yl]-3,6-dihydro-2H-pyridin-1-yl]butan-1-one]
10 | 6.85 | NCC1CN(C(=O)c2ccc(Nc3nc4c(C5=CCN(C(=O)CCC(F)(F)F)CC5)cccn4n3)cc2)C1 [Example 2-207, 1-[4-[2-[4-[3-(aminomethyl)azetidine-1-carbonyl]anilino]-[1,2,4]triazolo[1,5-a]pyridin-8-yl]-3,6-dihydro-2H-pyridin-1-yl]-4,4,4-trifluoro-butan-1-one]
11 | 7.05 | CN1CCC(N(C)C(=O)c2ccc(Nc3nc4c(C5=CCN(C(=O)OC6CCOC6)CC5)cccn4n3)cc2)CC1 (centres unmarked) [Example 2-346, tetrahydrofuran-3-yl 4-[2-[4-[methyl-(1-methyl-4-piperidyl)carbamoyl]anilino]-[1,2,4]triazolo[1,5-a]pyridin-8-yl]-3,6-dihydro-2H-pyridine-1-carboxylate]
12 | 8.47 | Cc1cncc(CNC(=O)c2ccc(Nc3nc4c(C5=CCN(C(=O)CCC(F)(F)F)CC5)cccn4n3)cc2)c1 [Example 2-206, N-[(5-methyl-3-pyridyl)methyl]-4-[[8-[1-(4,4,4-trifluorobutanoyl)-3,6-dihydro-2H-pyridin-4-yl]-[1,2,4]triazolo[1,5-a]pyridin-2-yl]amino]benzamide]
13 | 7.35 | O=C(CCC(F)(F)F)N1CC=C(c2cccn3nc(Nc4ccc(C(=O)N5CCN(CCn6ccnc6)CC5)cc4)nc23)CC1 [Example 2-462, 4,4,4-trifluoro-1-[4-[2-[4-[4-(2-imidazol-1-ylethyl)piperazine-1-carbonyl]anilino]-[1,2,4]triazolo[1,5-a]pyridin-8-yl]-3,6-dihydro-2H-pyridin-1-yl]butan-1-one]
14 | 7.10 | O=C(CCC(F)(F)F)N1CC=C(c2cccn3nc(Nc4ccc(C(=O)N5CCC6(CCNCC6)CC5)cc4)nc23)CC1 [Example 2-29, 1-[4-[2-[4-(3,9-diazaspiro[5.5]undecane-3-carbonyl)anilino]-[1,2,4]triazolo[1,5-a]pyridin-8-yl]-3,6-dihydro-2H-pyridin-1-yl]-4,4,4-trifluoro-butan-1-one]
15 | 7.56 | CCOC(=O)N1CC=C(c2cccn3nc(Nc4ccc(C(=O)N5CCCN(c6ccncc6)CC5)cc4)nc23)CC1 [Example 2-429, ethyl 4-[2-[4-[4-(4-pyridyl)-1,4-diazepane-1-carbonyl]anilino]-[1,2,4]triazolo[1,5-a]pyridin-8-yl]-3,6-dihydro-2H-pyridine-1-carboxylate]
16 | 7.28 | CN1CCC(N(C)C(=O)c2ccc(Nc3nc4c(C5=CCN(C(=O)OCc6ccccc6)CC5)cccn4n3)cc2)CC1 [Example 2-351, benzyl 4-[2-[4-[methyl-(1-methyl-4-piperidyl)carbamoyl]anilino]-[1,2,4]triazolo[1,5-a]pyridin-8-yl]-3,6-dihydro-2H-pyridine-1-carboxylate]
17 | 8.17 | CCOC(=O)N1CC=C(c2cccn3nc(Nc4ccc(C(=O)NCC(C)(C)N5CCOCC5)cc4)nc23)CC1 [Example 2-11, ethyl 4-[2-[4-[(2-methyl-2-morpholino-propyl)carbamoyl]anilino]-[1,2,4]triazolo[1,5-a]pyridin-8-yl]-3,6-dihydro-2H-pyridine-1-carboxylate]
18 | 6.63 | CCOC(=O)N1CC=C(c2cccn3nc(Nc4ccc(C(=O)NCCN5CCNCC5)cc4)nc23)CC1 [Example 2-112, ethyl 4-[2-[4-(2-piperazin-1-ylethylcarbamoyl)anilino]-[1,2,4]triazolo[1,5-a]pyridin-8-yl]-3,6-dihydro-2H-pyridine-1-carboxylate]
19 | 7.45 | CN1CCN(C(=O)C2CN(C(=O)c3ccc(Nc4nc5c(C6=CCN(C(=O)CCC(F)(F)F)CC6)cccn5n4)cc3)C2)CC1 [Example 2-159, 4,4,4-trifluoro-1-[4-[2-[4-[3-(4-methylpiperazine-1-carbonyl)azetidine-1-carbonyl]anilino]-[1,2,4]triazolo[1,5-a]pyridin-8-yl]-3,6-dihydro-2H-pyridin-1-yl]butan-1-one]
20 | 7.76 | CC1CC1C(=O)N1CC=C(c2cccn3nc(Nc4ccc(C(=O)N(C)C5CCN(C)CC5)cc4)nc23)CC1 (centres unmarked) [Example 2-223, N-methyl-4-[[8-[1-(2-methylcyclopropanecarbonyl)-3,6-dihydro-2H-pyridin-4-yl]-[1,2,4]triazolo[1,5-a]pyridin-2-yl]amino]-N-(1-methyl-4-piperidyl)benzamide]
21 | 7.25 | CCOC(=O)N1CC=C(c2cccn3nc(Nc4ccc(C(=O)N5CCN(c6cccnc6)CC5)cc4)nc23)CC1 [Example 2-19, ethyl 4-[2-[4-[4-(3-pyridyl)piperazine-1-carbonyl]anilino]-[1,2,4]triazolo[1,5-a]pyridin-8-yl]-3,6-dihydro-2H-pyridine-1-carboxylate]
22 | 6.62 | O=C(CCC(F)(F)F)N1CC=C(c2cccn3nc(Nc4ccc(C(=O)N5CCC6(CCCCN6)C5)cc4)nc23)CC1 (centres unmarked) [Example 2-378, 1-[4-[2-[4-(2,6-diazaspiro[4.5]decane-2-carbonyl)anilino]-[1,2,4]triazolo[1,5-a]pyridin-8-yl]-3,6-dihydro-2H-pyridin-1-yl]-4,4,4-trifluoro-butan-1-one]
23 | 6.28 | O=C(c1ccc(Nc2nc3c(N4CCC(O)(c5ccc(Cl)cc5)CC4)cccn3n2)cc1)N1CCC2(CNC2)C1 [Example 1-205, [4-[[8-[4-(4-chlorophenyl)-4-hydroxy-1-piperidyl]-[1,2,4]triazolo[1,5-a]pyridin-2-yl]amino]phenyl]-(2,6-diazaspiro[3.4]octan-6-yl)methanone]
24 | 8.26 | O=C(CCC(F)(F)F)N1CC=C(c2cccn3nc(Nc4ccc(C(=O)N5CCCC5c5ccncc5)cc4)nc23)CC1 (centres unmarked) [Example 2-273, 4,4,4-trifluoro-1-[4-[2-[4-[2-(4-pyridyl)pyrrolidine-1-carbonyl]anilino]-[1,2,4]triazolo[1,5-a]pyridin-8-yl]-3,6-dihydro-2H-pyridin-1-yl]butan-1-one]
25 | 7.90 | CN1C[C@@H]2CCN(C(=O)c3ccc(Nc4nc5c(N6CCC(O)(c7ccc(Cl)cc7)CC6)cccn5n4)cc3)[C@@H]2C1 [Example 1-76, [(3aS,6aS)-5-methyl-2,3,3a,4,6,6a-hexahydropyrrolo[2,3-c]pyrrol-1-yl]-[4-[[8-[4-(4-chlorophenyl)-4-hydroxy-1-piperidyl]-[1,2,4]triazolo[1,5-a]pyridin-2-yl]amino]phenyl] methanone]
26 | 6.54 | CCOC(=O)N1CC=C(c2cccn3nc(Nc4ccc(C(=O)N5CCCCC5c5cccnc5)cc4)nc23)CC1 (centres unmarked) [Example 2-232, ethyl 4-[2-[4-[2-(3-pyridyl)piperidine-1-carbonyl]anilino]-[1,2,4]triazolo[1,5-a]pyridin-8-yl]-3,6-dihydro-2H-pyridine-1-carboxylate]
